According to patent publication US20070281330A1, “Method for Examining the Activity of Ion Channels” (priority 2004, published 2007):
“And” between values parts separate entries of the source, which are not always exact repeats. Equal entries are not always repeated.

How the values were obtained:
sodium channel SCN5a = sodium channel SCN5a (Homo sapiens, UniProt Q14524); format: cell-based
Kv1.3 = target: T1, Kv1.3 (Homo sapiens, UniProt P22001); test: FMP membrane potential assay on Kv1.3, suspension cells; format: cell-based; conditions: 100 nM Margatoxin, FMP dye
T1 construct: expressed in transfected cells
T1 sequence (P22001 whole entry): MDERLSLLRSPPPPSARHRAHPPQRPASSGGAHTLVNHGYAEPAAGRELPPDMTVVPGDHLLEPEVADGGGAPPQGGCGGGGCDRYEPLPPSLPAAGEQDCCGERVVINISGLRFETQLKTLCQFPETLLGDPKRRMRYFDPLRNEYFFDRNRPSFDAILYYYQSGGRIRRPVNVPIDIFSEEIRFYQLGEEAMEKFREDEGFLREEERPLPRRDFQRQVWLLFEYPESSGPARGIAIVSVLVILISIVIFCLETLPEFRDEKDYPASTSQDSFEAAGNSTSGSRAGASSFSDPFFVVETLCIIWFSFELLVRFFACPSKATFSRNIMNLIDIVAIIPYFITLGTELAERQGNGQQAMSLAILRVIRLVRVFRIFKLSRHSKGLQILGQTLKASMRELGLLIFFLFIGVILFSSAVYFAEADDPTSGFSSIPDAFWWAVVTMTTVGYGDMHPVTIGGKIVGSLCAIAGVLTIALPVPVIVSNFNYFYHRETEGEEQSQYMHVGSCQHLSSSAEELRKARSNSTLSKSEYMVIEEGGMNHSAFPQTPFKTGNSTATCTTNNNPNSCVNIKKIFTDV

[1] = 110 min 1° C. (after 10 min room temperature)

sodium channel SCN5a, sequence (Q14524 whole entry, looked up): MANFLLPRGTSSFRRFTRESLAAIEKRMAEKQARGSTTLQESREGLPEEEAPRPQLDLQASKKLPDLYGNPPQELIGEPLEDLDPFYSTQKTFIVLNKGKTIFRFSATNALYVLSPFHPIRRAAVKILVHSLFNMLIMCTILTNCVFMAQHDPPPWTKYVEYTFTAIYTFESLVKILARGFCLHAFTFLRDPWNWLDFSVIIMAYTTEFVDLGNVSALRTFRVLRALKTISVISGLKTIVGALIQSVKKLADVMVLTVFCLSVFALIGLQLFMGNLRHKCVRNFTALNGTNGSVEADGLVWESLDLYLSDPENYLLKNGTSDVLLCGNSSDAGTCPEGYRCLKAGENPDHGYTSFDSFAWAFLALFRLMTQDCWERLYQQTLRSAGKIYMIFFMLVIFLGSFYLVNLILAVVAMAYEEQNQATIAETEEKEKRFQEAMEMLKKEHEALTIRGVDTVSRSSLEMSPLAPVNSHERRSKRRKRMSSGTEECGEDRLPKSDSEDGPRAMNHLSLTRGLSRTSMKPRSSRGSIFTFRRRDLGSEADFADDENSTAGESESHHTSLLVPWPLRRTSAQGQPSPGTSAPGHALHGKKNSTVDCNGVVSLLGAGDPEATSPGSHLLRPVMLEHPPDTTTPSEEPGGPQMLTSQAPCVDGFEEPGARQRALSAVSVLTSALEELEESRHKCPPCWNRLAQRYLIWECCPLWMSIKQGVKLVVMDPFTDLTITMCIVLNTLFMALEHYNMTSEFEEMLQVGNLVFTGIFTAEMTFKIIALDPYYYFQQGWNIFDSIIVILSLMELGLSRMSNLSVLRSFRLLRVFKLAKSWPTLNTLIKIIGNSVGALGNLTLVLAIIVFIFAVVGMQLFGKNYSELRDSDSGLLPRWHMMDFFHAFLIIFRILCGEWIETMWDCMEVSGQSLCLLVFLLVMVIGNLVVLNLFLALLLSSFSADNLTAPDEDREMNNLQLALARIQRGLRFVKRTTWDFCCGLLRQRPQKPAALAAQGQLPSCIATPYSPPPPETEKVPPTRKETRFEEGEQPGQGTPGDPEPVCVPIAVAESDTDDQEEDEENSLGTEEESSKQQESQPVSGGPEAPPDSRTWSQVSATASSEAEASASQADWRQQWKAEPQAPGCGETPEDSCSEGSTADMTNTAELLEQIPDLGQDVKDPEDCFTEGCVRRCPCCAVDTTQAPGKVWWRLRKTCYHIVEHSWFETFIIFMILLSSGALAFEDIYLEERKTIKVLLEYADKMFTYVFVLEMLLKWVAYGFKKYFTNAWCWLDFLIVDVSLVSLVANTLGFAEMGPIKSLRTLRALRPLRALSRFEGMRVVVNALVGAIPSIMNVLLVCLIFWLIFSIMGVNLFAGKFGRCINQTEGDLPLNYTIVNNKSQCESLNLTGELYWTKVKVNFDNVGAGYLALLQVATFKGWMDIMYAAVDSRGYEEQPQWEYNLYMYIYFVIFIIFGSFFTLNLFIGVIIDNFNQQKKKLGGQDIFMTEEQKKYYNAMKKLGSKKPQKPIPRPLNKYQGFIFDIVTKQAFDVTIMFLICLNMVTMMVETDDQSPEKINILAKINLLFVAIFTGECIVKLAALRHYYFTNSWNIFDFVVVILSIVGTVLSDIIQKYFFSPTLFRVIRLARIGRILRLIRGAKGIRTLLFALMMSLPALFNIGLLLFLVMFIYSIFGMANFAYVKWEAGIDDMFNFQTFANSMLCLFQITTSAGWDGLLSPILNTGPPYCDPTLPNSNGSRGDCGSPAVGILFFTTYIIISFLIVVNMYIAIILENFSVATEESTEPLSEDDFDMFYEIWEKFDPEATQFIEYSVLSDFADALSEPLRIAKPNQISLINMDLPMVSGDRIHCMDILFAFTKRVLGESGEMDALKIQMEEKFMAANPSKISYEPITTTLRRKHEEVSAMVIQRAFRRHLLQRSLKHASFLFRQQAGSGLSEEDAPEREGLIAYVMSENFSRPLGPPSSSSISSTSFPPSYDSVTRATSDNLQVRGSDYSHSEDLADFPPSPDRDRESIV

Row | Compound | 18° C. [RFUs] (sodium channel SCN5a) | Increase [%] (Kv1.3; 10 min room temperature) | [rfu] (Kv1.3; 10 min room temperature) | Increase [%] (Kv1.3; [1]) | [rfu] (Kv1.3; [1])
1 | NC1=N[C@H](O)[C@H]2[C@H]3O[C@]4(O)O[C@@H]([C@@H](O)[C@@]2(N1)[C@@H]4O)[C@]3(O)CO [TTX, tetrodotoxin] | 4636.0 RFUs and 5379.0 RFUs and 2882.0 RFUs and 3816.0 RFUs and 4067.0 RFUs and 4401.0 RFUs and 5620.0 RFUs and 5034.0 RFUs |  |  |  | 
2 | Margatoxin |  | 3% and 2.93% | 22479.50 | 68% and 68.04% | 47474.00
